For one test, the target named is T1, rat B1R (Rattus norvegicus, UniProt P97583).
T1 construct: expressed in transfected cells; host or cells: CHO K1 cells
T1 sequence (P97583 1-337): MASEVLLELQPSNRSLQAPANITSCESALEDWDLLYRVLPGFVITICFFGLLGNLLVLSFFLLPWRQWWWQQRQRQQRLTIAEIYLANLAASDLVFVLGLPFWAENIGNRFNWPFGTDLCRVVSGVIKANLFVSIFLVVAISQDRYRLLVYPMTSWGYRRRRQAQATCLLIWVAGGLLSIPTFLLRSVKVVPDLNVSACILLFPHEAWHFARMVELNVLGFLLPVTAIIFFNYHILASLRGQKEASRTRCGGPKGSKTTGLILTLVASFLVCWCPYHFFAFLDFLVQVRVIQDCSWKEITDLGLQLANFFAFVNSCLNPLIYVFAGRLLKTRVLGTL
The test is described as follows: Functional investigation on the bradykinin receptor 1 (B1R), FLIPR Ca2+ assay, rB1R cells. It counts as cell-based. Conditions: % inhibition rat B1R at 10 μM; CHO K1 cells transfected with rat B1R; agonist Des-Arg9 bradykinin at EC80; read-out: % Inh. (rat B1R) 10 μM. The protocol:
(§1) The agonistic or antagonistic action of substances can be quantified on the bradykinin receptor 1 (B1R) of the human and rat species with ectopically expressing cell lines (CHO K1 cells) and with the aid of a Ca^2+-sensitive dye (Fluo-4) using a fluorescent imaging plate reader (FLIPR). The indication in % activation is based on the Ca^2+ signal after addition of Lys-Des-Arg^9 bradykinin (0.5 nM) or Des-Arg^9 bradykinin (100 nM). Antagonists lead to a suppression of the Ca^2+ influx following administration of the agonist. The % inhibition in comparison with the maximum achievable inhibition is indicated.
(§2) The agonistic or antagonistic action of substances can be determined on the bradykinin 1 receptor (B1R) of the human and rat species with the following assay. According to this assay, the Ca^2+ inflow through the channel is quantified with the aid of a Ca^2+-sensitive dye (Fluo-4 type, Molecular Probes Europe BV, Leiden, The Netherlands) in a fluorescent imaging plate reader (FLIPR, Molecular Devices, Sunnyvale, USA).
(§3) Chinese hamster ovary cells (CHO K1 cells) which are stably transfected with the human B1R gene (hB1R cells) or the B1R gene of the rat (rB1R cells) are used. For functional investigations, these cells are plated-out onto black 96-well plates with a clear base (BD Biosciences, Heidelberg, Germany or Greiner, Frickenhausen, Germany) in a density of 20,000-35,000 cells/well. Overnight, the cells are incubated at 37° C. and 5% CO2 in culture medium (hB1R cells: Nutrient Mixture Ham's F12, Gibco Invitrogen GmbH, Karlsruhe, Germany or DMEM, Sigma-Aldrich, Taufkirchen, Germany; rB1R cells: D-MEM/F12, Gibco Invitrogen, Karlsruhe, Germany) with 10 vol. % FBS (foetal bovine serum, Gibco Invitrogen GmbH, Karlsruhe, Germany or PAN Biotech GmbH, Aidenbach, Germany). On the following day the cells are loaded with 2.13 μM Fluo-4 (Molecular Probes Europe BV, Leiden, The Netherlands) in HBSS buffer (Hank's buffered saline solution, Gibco Invitrogen GmbH, Karlsruhe, Germany) with 2.5 mM probenecid (Sigma-Aldrich, Taufkirchen, Germany) and 10 mM HEPES (Sigma-Aldrich, Taufkirchen, Germany) for 60 min at 37° C. The plates are the washed twice with HBSS buffer, and HBSS buffer which additionally contains 0.1% BSA (bovine serum albumin; Sigma-Aldrich, Taufkirchen, Germany), 5.6 mM glucose and 0.05% gelatine (Merck KGaA, Darmstadt, Germany) is added. After a further incubation of 20 minutes at room temperature, the plates are inserted into the FLIPR for Ca^2+ measurement. Alternatively they are washed with buffer A (15 mM HEPES, 80 mM NaCl, 5 mM KCl, 1.2 mM CaCl2, 0.7 mM MgSO4, 2 g/l glucose, 2.5 mM probenecid) and loaded with buffer A with added 2.5 μM Fluo-4 and 0.025% Pluronic F127 (Sigma-Aldrich, Taufkirchen, Germany). The cells are then washed twice with buffer A and incubated for 30 minutes with buffer A, which additionally contains 0.05% BSA and 0.05% gelatine, at room temperature and then used for Ca^2+ measurement in the FLIPR.
(§4) The Ca^2+-dependent fluorescence is measured here before and after addition of substances (λex=488 nm, λem=540 nm). The quantification is performed by measuring the highest fluorescence intensity (FC, fluorescence counts) over time.
(§5) The FLIPR protocol comprises two additions of substance. Test substances (10 μM) are first pipetted onto the cells and the Ca^2+ inflow is compared with the control (hB1R: Lys-Des-Arg^9 bradykinin>=50 nM; rB1R: Des-Arg^9 bradykinin 10 μM). The value in % activation based on the Ca^2+ signal after addition of Lys-Des-Arg^9 bradykinin (>=50 nM) or Des-Arg^9 bradykinin (10 μM) is obtained therefrom. After incubation for 10-20 minutes, Lys-Des-Arg^9 bradykinin (hB1R) or Des-Arg^9 bradykinin (rB1R) is applied in the EC80 concentration and the inflow of Ca^2+ is likewise determined. Antagonists lead to a suppression of the Ca^2+ inflow. The % inhibition in comparison with the maximum achievable inhibition is calculated. […]

Another test has as its target T2, human B1R (Homo sapiens, UniProt P46663).
T2 construct: expressed in transfected cells; host or cells: CHO K1 cells
T2 sequence (P46663 1-353): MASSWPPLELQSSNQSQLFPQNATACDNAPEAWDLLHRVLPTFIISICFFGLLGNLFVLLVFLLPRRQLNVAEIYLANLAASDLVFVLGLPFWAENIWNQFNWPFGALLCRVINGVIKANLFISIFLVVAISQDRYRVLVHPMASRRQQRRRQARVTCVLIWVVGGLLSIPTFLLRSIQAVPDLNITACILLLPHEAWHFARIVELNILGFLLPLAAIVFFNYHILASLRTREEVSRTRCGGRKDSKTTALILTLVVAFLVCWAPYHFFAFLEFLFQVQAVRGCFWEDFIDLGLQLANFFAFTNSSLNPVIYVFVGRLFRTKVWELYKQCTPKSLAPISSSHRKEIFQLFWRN
Description: Functional investigation on the bradykinin receptor 1 (B1R), FLIPR Ca2+ assay, hB1R cells. Format: cell-based. Conditions: % inhibition human B1R at 10 μM; CHO K1 cells transfected with human B1R; agonist Lys-Des-Arg9 bradykinin at EC80; read-out: % Inh. (hum. B1R) 10 μM. The protocol:
as §1, §2, §3, §4, §5

For `COc1cc(C)c(S(=O)(=O)N2CCCCC2COCC(=O)N2CCC3(CC2)CCC(c2ccccc2)(N2CCCC2)CC3)c(C)c1` (stereo not shown) [Compound 1, 2-((1-(4-Methoxy-2,6-dimethylphenylsulfonyl)piperidin-2-yl)methoxy)-1-(9-phenyl-9-(pyrrolidin-1-yl)-3-azaspiro[5.5]undecan-3-yl)ethanone], the inhibition at 10 µM at rat B1R was 92%; on human B1R it was 100%.

Turning to `Cc1cccc(Cl)c1S(=O)(=O)N1CCCCC1COCC(=O)N1CCC2(CC1)CCC(c1cccs1)(N(C)C)CC2` (stereo not shown) [CC-13, 2-[[1-[(2-Chloro-6-methyl-phenyl)sulfonyl]-piperidin-2-yl]-methoxy]-1-(3-dimethylamino-3-thiophen-2-yl-9-azaspiro[5.5]undecan-9-yl)-ethanone], the inhibition at 10 µM at rat B1R is 98%; on human B1R, 100%.

Source of the values: patent publication US8278319B2, “Substituted spiroamine compounds” (Gruenenthal GmbH, priority 2008, dated 2012).
